# Experiments:
# [1] = In vitro release of DOC in PBS pH 7.4; type: physicochemical; details: PBS pH 7.4, within 24 h
# Source text: The mass spectrum of the HRK‐19 peptide was shown in Figure S1 of the Supporting Information. And it can be seen the mass of HRK‐19 peptide was 1959.80 g mol^−1, which was consistent with the theoretical mass (1959.20 g mol^−1). The HRK‐19 peptide had ≥95% purity, as confirmed by analytical reversed‐phase (RP)‐high performance liquid chromatography (HPLC) (Figure S2, Supporting Information). As shown in Figure S3 of the Supporting Information, the HRK‐19 peptide contains no apparent secondary structure such as helix and Beta turn. […] To prepare a tumor‐targeting peptide, in this study, Asn‐Gly‐Arg‐Arg‐Gly‐Asp (NGRRGD) and three amino acids (HAV) were conjugated with apoptosis‐inducing peptide sequence AVPIAQK, forming bifunctional peptide (HRK‐19 peptide, HAVRNGRRGDGGAVPIAQK). As shown schematically in Figure 2 A, self‐assembly of the DOC/peptide NPs was prepared by the film dispersion method. […] It can be seen that the DL, and particle size increased with increase of drug/copolymer ratio in feed, whereas, the EE decreased accordingly. In consideration of DL and stability, the sample of S2 was chose for further applications and was characterized in detail. The DL and EE of DOC were 4.52 ± 0.18% and 90.50 ± 3.68%. […]
# [2] = tested on: A549 cells; test: Microtubule formation (α-tubulin fluorescence microscopy); type: cell-based, human; details: A549, 4 h
# Source text: Agents targeting microtubules are often used in cancer therapy. The taxanes act to stabilize microtubules and dampen microtubule dynamics to prevent the normal formation of mitotic spindles.34 Both paclitaxel and DOC can bind to β‐tubulin in assembled tubulin, thereby reducing depolymerization and leading to cell death.35 Therefore, we examined the effects of DOC on microtubule formation and cell apoptosis on A549 cells. […] However, at 10 × 10^−9 M, DOC begins to arrest A549 cells by interfering with the assembling/disassembling microtubule spindle.
# Figure 5 The effects of DOC on the microtubule formation on the A549 cell lines. A549 cells were seeded on coverslip and treated with docetaxel of indicated concentrations for 4 h. The microtubule was determined by fluorescence microscopy. The red indicates the α‐tubulin and the blue is the DAPI stain for DNA. Scale bar: 20 µm.
# For the expression and localization of α‐tubulin, cells were incubated with the antibodies against α‐tubulin (Abcam, USA) followed by incubation with TRITC‐conjugated secondary antibodies. The images were obtained using a confocal microscope (DM6000 CS, Leica, Germany).
# [3] = tested on: A549 cells; test: Cell apoptosis assay (Annexin V-FITC/PI flow cytometry); type: cell-based, human; details: A549, 24 h
# Method: Given the effectiveness of transporting hydrophobic drug‐DOC into A549 cancer cells by the bifunctional peptide NPs, we carried out the cytotoxicity experiments to further evaluate the anticancer activity of DOC/peptide NPs on A549 by Flow cytometry analysis. Flow cytometry analysis was performed to monitor the percentage of cell apoptosis after the cells being stained by Annexin V‐Fluorescein isothiocyanate/propidium iodide (Annexin V‐FITC/PI) apoptosis detection kit, and A549 cells incubated in media only were used as control (Figure 6 A). The percentage of apoptosis of A549 cells (early and late apoptosis) incubated for 24 h with DOC/peptide containing DOC 5 × 10^−9 and 10 × 10^−9 M were 11.56 ± 0.91% and 20.66 ± 1.89%, respectively. For free DOC, they were 8.87 ± 0.79% and 15.73 ± 0.56%, respectively. Obviously, DOC‐loaded bifunctional peptide NPs induced significant cell apoptosis.
# To investigate the apoptotic effect of the DOC/peptide NPs, flow cytometry was performed using an ESP Elite flow cytometer (BeckmaneCoulter, Miami, FL, USA) with FITC‐conjugated Annexin V/propidium iodide (PI, BD PharMingen) staining as per the manufacturer's instructions. A549 cells cultured in 6‐well plates were treated with DOC/peptide NPs, free DOC, and blank peptide. […] Both early apoptotic (Annexin V‐positive, PI‐negative) and late apoptotic (Annexin V‐positive and PI‐positive) cells were measured.
smiles,measurement,setting,value
"CC(=O)O[C@@]12CO[C@@H]1C[C@H](O)[C@@]1(C)C(=O)[C@H](O)C3=C(C)[C@@H](OC(=O)[C@H](O)[C@@H](NC(=O)OC(C)(C)C)c4ccccc4)C[C@@](O)([C@@H](OC(=O)c4ccccc4)[C@H]21)C3(C)C [DOC, Docetaxel]","Peak release of DOC, % of the total drug",[1],85.37 ± 1.83%
same,Concentration at which DOC begins to arrest cells by interfering with the microtubule spindle,[2],10 nM
same,Percentage of apoptosis (early and late apoptosis),[3]; DOC 5 × 10^−9 M,8.87 ± 0.79%
same,Percentage of apoptosis (early and late apoptosis),[3]; DOC 10 × 10^−9 M,15.73 ± 0.56%

# From PMC5396162, “Self‐Assembled Bifunctional Peptide as Effective Drug Delivery Vector with Powerful Antitumor Activity” (Advanced Science, 2017)
